Reference: PMC5218480 (PLoS ONE, 2017)

Tested on: MV-4-11 cells
Test: Gene expression microarray analysis (Affymetrix PrimeView) and GSEA
Format: cell-based, human
Set-up: RFU PODN (11730768_x_at) / Fold change /veh PODN (11730768_x_at) / RFU LINC00158 (11744669_a_at) / Fold change /veh LINC00158 (11744669_a_at) / RFU DUSP10 (11751237_a_at) / Fold change /veh DUSP10 (11751237_a_at) / RFU ID3 (11757404_x_at) / Fold change /veh ID3 (11757404_x_at) / RFU PLEKHG5 (11737974_s_at) / Fold change /veh PLEKHG5 (11737974_s_at) / RFU LRRC4B (11730491_at) / Fold change /veh LRRC4B (11730491_at) / RFU GIMAP4 (11747438_a_at) / Fold change /veh GIMAP4 (11747438_a_at) / RFU KRT8 (11758183_x_at) / Fold change /veh KRT8 (11758183_x_at) / RFU CNN1 (11734310_a_at) / Fold change /veh CNN1 (11734310_a_at) / RFU VPS37D (11726825_at) / Fold change /veh VPS37D (11726825_at) / RFU C10orf10 (11716522_x_at) / Fold change /veh C10orf10 (11716522_x_at) / RFU KIR2DL2 /// KIR2DL4 /// KIR2DL5A /// KIR2DL5B /// KIR2DS1 /// KIR2DS2 /// KIR2DS3 /// KIR2DS4 /// KIR3DL3 /// KIR3DL3 /// KIR3DS1 (11738374_at) / Fold change /veh KIR2DL2 /// KIR2DL4 /// KIR2DL5A /// KIR2DL5B /// KIR2DS1 /// KIR2DS2 /// KIR2DS3 /// KIR2DS4 /// KIR3DL3 /// KIR3DL3 /// KIR3DS1 (11738374_at) / RFU C1QL1 (11718748_at) / Fold change /veh C1QL1 (11718748_at) / RFU TMPRSS4 (11747572_a_at) / Fold change /veh TMPRSS4 (11747572_a_at) / RFU HAMP (11756126_x_at) / Fold change /veh HAMP (11756126_x_at) / RFU RNFT2 (11725882_a_at) / Fold change /veh RNFT2 (11725882_a_at) / RFU NR4A2 (11747474_a_at) / Fold change /veh NR4A2 (11747474_a_at) / RFU ABCC12 (11746883_a_at) / Fold change /veh ABCC12 (11746883_a_at) / RFU TMEM136 (11760407_x_at) / Fold change /veh TMEM136 (11760407_x_at) / RFU CLDN22 /// WWC2 (11732394_at) / Fold change /veh CLDN22 /// WWC2 (11732394_at) / RFU HLA-DPB1 (11760878_x_at) / Fold change /veh HLA-DPB1 (11760878_x_at) / RFU SPINT1 (11716480_a_at) / Fold change /veh SPINT1 (11716480_a_at) / RFU GAP43 (11754022_s_at) / Fold change /veh GAP43 (11754022_s_at) / RFU A4GNT (11735810_at) / Fold change /veh A4GNT (11735810_at) / RFU PRB3 (11715151_x_at) / Fold change /veh PRB3 (11715151_x_at) / RFU TUBB4B (11761932_at) / Fold change /veh TUBB4B (11761932_at) / RFU CAPN14 (11732068_a_at) / Fold change /veh CAPN14 (11732068_a_at) / RFU TMCC2 (11721928_a_at) / Fold change /veh TMCC2 (11721928_a_at) / RFU IRGQ (11745062_a_at) / Fold change /veh IRGQ (11745062_a_at) / RFU FAM174B (11720279_a_at) / Fold change /veh FAM174B (11720279_a_at) / RFU TMPRSS4 (11748680_a_at) / Fold change /veh TMPRSS4 (11748680_a_at) / RFU FAM212B (11763350_a_at) / Fold change /veh FAM212B (11763350_a_at) / RFU PLEKHG5 (11743358_a_at) / Fold change /veh PLEKHG5 (11743358_a_at) / RFU ZSCAN30 (11745921_a_at) / Fold change /veh ZSCAN30 (11745921_a_at) / RFU CMKLR1 (11741424_a_at) / Fold change /veh CMKLR1 (11741424_a_at) / RFU LOC101060620 /// MAPK8IP1 (11723275_at) / Fold change /veh LOC101060620 /// MAPK8IP1 (11723275_at) / RFU SPTSSB (11747773_x_at) / Fold change /veh SPTSSB (11747773_x_at) / RFU PRSS12 (11739890_at) / Fold change /veh PRSS12 (11739890_at) / RFU BIN1 (11741810_x_at) / Fold change /veh BIN1 (11741810_x_at) / RFU WNT11 (11732464_a_at) / Fold change /veh WNT11 (11732464_a_at) / RFU C10orf10 (11716521_a_at) / Fold change /veh C10orf10 (11716521_a_at) / RFU C5orf56 (11738089_at) / Fold change /veh C5orf56 (11738089_at) / RFU CYB561 (11721691_x_at) / Fold change /veh CYB561 (11721691_x_at) / RFU ANKRD19P (11752326_a_at) / Fold change /veh ANKRD19P (11752326_a_at) / RFU OR2T12 /// OR2T33 /// OR2T8 (11738714_s_at) / Fold change /veh OR2T12 /// OR2T33 /// OR2T8 (11738714_s_at) / RFU VCAN (11748164_a_at) / Fold change /veh VCAN (11748164_a_at) / RFU JSRP1 (11732532_at) / Fold change /veh JSRP1 (11732532_at) / RFU KRTAP10-11 (11738290_x_at) / Fold change /veh KRTAP10-11 (11738290_x_at) / RFU MYO3A (11730013_a_at) / Fold change /veh MYO3A (11730013_a_at) / RFU EBF3 (11725865_a_at) / Fold change /veh EBF3 (11725865_a_at) / RFU CAMK2N1 (11719241_x_at) / Fold change /veh CAMK2N1 (11719241_x_at) / RFU C5orf56 (11738088_a_at) / Fold change /veh C5orf56 (11738088_a_at) / RFU OLFML3 (11715873_a_at) / Fold change /veh OLFML3 (11715873_a_at) / RFU LOC100653217 /// NTM (11731650_a_at) / Fold change /veh LOC100653217 /// NTM (11731650_a_at) / RFU MAPK11 (11762145_a_at) / Fold change /veh MAPK11 (11762145_a_at) / RFU FIZ1 (11724087_x_at) / Fold change /veh FIZ1 (11724087_x_at) / RFU OASL (11726364_x_at) / Fold change /veh OASL (11726364_x_at) / RFU SOX15 (11748057_x_at) / Fold change /veh SOX15 (11748057_x_at) / RFU CD79A (11719716_a_at) / Fold change /veh CD79A (11719716_a_at) / RFU HIST1H1D (11736915_at) / Fold change /veh HIST1H1D (11736915_at) / RFU CASKIN2 (11723855_a_at) / Fold change /veh CASKIN2 (11723855_a_at) / RFU LOC730098 (11760151_x_at) / Fold change /veh LOC730098 (11760151_x_at) / RFU OR4N2 (11742367_at) / Fold change /veh OR4N2 (11742367_at) / RFU PRRT2 (11749266_a_at) / Fold change /veh PRRT2 (11749266_a_at) / RFU SNX32 (11753110_a_at) / Fold change /veh SNX32 (11753110_a_at) / RFU CDHR5 (11726645_a_at) / Fold change /veh CDHR5 (11726645_a_at) / RFU RCAN1 (11760418_a_at) / Fold change /veh RCAN1 (11760418_a_at) / RFU FAM167A (11723789_a_at) / Fold change /veh FAM167A (11723789_a_at) / RFU FAM26E (11764081_at) / Fold change /veh FAM26E (11764081_at) / RFU ISYNA1 (11749810_s_at) / Fold change /veh ISYNA1 (11749810_s_at) / RFU ACY1 (11761880_at) / Fold change /veh ACY1 (11761880_at) / RFU 11764098_at / Fold change /veh 11764098_at / RFU SAMD14 (11745864_x_at) / Fold change /veh SAMD14 (11745864_x_at) / RFU NPB (11741838_a_at) / Fold change /veh NPB (11741838_a_at) / RFU TMPRSS6 (11731388_a_at) / Fold change /veh TMPRSS6 (11731388_a_at) / RFU KRTAP10-2 (11738614_at) / Fold change /veh KRTAP10-2 (11738614_at) / RFU ARHGAP8 /// PRR5-ARHGAP8 (11727945_x_at) / Fold change /veh ARHGAP8 /// PRR5-ARHGAP8 (11727945_x_at) / RFU KRTAP5-7 /// NADSYN1 (11734609_at) / Fold change /veh KRTAP5-7 /// NADSYN1 (11734609_at) / RFU RASL12 (11751679_a_at) / Fold change /veh RASL12 (11751679_a_at) / RFU CDKN2B (11736163_a_at) / Fold change /veh CDKN2B (11736163_a_at) / RFU PRF1 (11729649_at) / Fold change /veh PRF1 (11729649_at) / RFU, ZNF638 /// ZNF638-IT1 / Fold change vs veh, ZNF638 /// ZNF638-IT1 / RFU, PANK3 / Fold change vs veh, PANK3 / RFU, SH3YL1 / Fold change vs veh, SH3YL1 / RFU, ZEB2 / Fold change vs veh, ZEB2 / RFU, NRIP1 / Fold change vs veh, NRIP1 / RFU, PTTG1IP / Fold change vs veh, PTTG1IP / RFU, CAPN2 / Fold change vs veh, CAPN2 / RFU, MED14 / Fold change vs veh, MED14 / RFU, SNORA58 / Fold change vs veh, SNORA58 / RFU, C1orf63 / Fold change vs veh, C1orf63 / RFU, LRRFIP1 / Fold change vs veh, LRRFIP1 / RFU, NDUFAF7 / Fold change vs veh, NDUFAF7 / RFU, SLC12A2 / Fold change vs veh, SLC12A2 / RFU, IBTK / Fold change vs veh, IBTK / RFU, ESF1 / Fold change vs veh, ESF1 / Fold change vs veh, TMEM50B / RFU, TAOK1 / Fold change vs veh, TAOK1 / RFU, ACBD3 / Fold change vs veh, ACBD3 / RFU, TMA16 / Fold change vs veh, TMA16 / RFU, RWDD3 / Fold change vs veh, RWDD3 / RFU, BCAT1 / Fold change vs veh, BCAT1 / RFU, EDEM3 / Fold change vs veh, EDEM3 / RFU, TMEM33 / Fold change vs veh, TMEM33 / RFU, WDR75 / Fold change vs veh, WDR75 / RFU, AHCTF1 / Fold change vs veh, AHCTF1 / RFU, TFRC / Fold change vs veh, TFRC / RFU, ZDHHC17 / Fold change vs veh, ZDHHC17 / RFU, NOM1 / Fold change vs veh, NOM1 / RFU, ARL8B / Fold change vs veh, ARL8B / RFU, ZBTB11 / Fold change vs veh, ZBTB11 / RFU, TAMM41 / Fold change vs veh, TAMM41 / RFU, KIAA1704 /// LOC100996395 / Fold change vs veh, KIAA1704 /// LOC100996395 / RFU, ING1 / Fold change vs veh, ING1 / RFU, TRMT61B / Fold change vs veh, TRMT61B / RFU, FUBP3 / Fold change vs veh, FUBP3 / RFU, TP53 / Fold change vs veh, TP53 / RFU, TNKS2 / Fold change vs veh, TNKS2 / RFU, ZFP14 / Fold change vs veh, ZFP14 / RFU, ACTR2 / Fold change vs veh, ACTR2 / RFU, PPP3R1 / Fold change vs veh, PPP3R1 / RFU, PIK3R1 / Fold change vs veh, PIK3R1 / RFU, HNRNPA1 / Fold change vs veh, HNRNPA1 / RFU, RNF170 / Fold change vs veh, RNF170 / RFU, ZNF28 / Fold change vs veh, ZNF28 / RFU, RNGTT / Fold change vs veh, RNGTT / RFU, OGT / Fold change vs veh, OGT / RFU, BRD1 / Fold change vs veh, BRD1 / RFU, MARS / Fold change vs veh, MARS / RFU, ZNF655 / Fold change vs veh, ZNF655 / RFU, FAHD1 / Fold change vs veh, FAHD1 / RFU, BDP1 / Fold change vs veh, BDP1 / RFU, LRRCC1 / Fold change vs veh, LRRCC1 / RFU, ARID1A / Fold change vs veh, ARID1A / RFU, ZNF146 / Fold change vs veh, ZNF146 / RFU, ZNF330 / Fold change vs veh, ZNF330 / RFU, GPN3 / Fold change vs veh, GPN3 / RFU, C9orf123 / Fold change vs veh, C9orf123 / RFU, N4BP2L2 / Fold change vs veh, N4BP2L2 / RFU, ARFIP1 / Fold change vs veh, ARFIP1 / RFU, FAM179B / Fold change vs veh, FAM179B / RFU, BCL10 / Fold change vs veh, BCL10 / RFU, UHRF1BP1L / Fold change vs veh, UHRF1BP1L / RFU, BET1 / Fold change vs veh, BET1 / RFU, CNOT2 / Fold change vs veh, CNOT2 / RFU, ZNF268 / Fold change vs veh, ZNF268 / Fold change vs veh, ZNF507 / RFU, DGCR2 / Fold change vs veh, DGCR2 / RFU, WDSUB1 / Fold change vs veh, WDSUB1 / Fold change vs veh, HSP90B1 /// MIR3652 / RFU, ADSS / Fold change vs veh, ADSS / RFU, GK / Fold change vs veh, GK / RFU, ZNF148 / Fold change vs veh, ZNF148 / RFU, TAF9 / Fold change vs veh, TAF9 / RFU, SLC1A5 / Fold change vs veh, SLC1A5 / RFU, SLMO2 / Fold change vs veh, SLMO2 / RFU, ABCC4 / Fold change vs veh, ABCC4 / RFU, LOC101060439 /// RAP1B / Fold change vs veh, LOC101060439 /// RAP1B / RFU, RFX7 / Fold change vs veh, RFX7 / RFU, GTPBP10 / Fold change vs veh, GTPBP10 / RFU, CNEP1R1 / Fold change vs veh, CNEP1R1 / RFU, BIVM-ERCC5 /// ERCC5 / Fold change vs veh, BIVM-ERCC5 /// ERCC5 / RFU, ILF3 / Fold change vs veh, ILF3 / RFU 11762660_at / Fold change /veh 11762660_at / RFU VCAN (11757783_s_at) / Fold change /veh VCAN (11757783_s_at) / RFU DDX43 (11728927_at) / Fold change /veh DDX43 (11728927_at) / RFU KRT8 (11758188_x_at) / Fold change /veh KRT8 (11758188_x_at) / RFU NKD1 (11759106_at) / Fold change /veh NKD1 (11759106_at) / RFU SRD5A1 (11742802_a_at) / Fold change /veh SRD5A1 (11742802_a_at) / RFU TPSAB1 /// TPSB2 (11721975_s_at) / Fold change /veh TPSAB1 /// TPSB2 (11721975_s_at) / RFU GSTM3 (11746129_a_at) / Fold change /veh GSTM3 (11746129_a_at) / RFU IL23R (11737362_x_at) / Fold change /veh IL23R (11737362_x_at) / RFU TMEM51 (11727254_a_at) / Fold change /veh TMEM51 (11727254_a_at) / RFU PIWIL2 (11732686_x_at) / Fold change /veh PIWIL2 (11732686_x_at) / RFU ORM1 (11744905_x_at) / Fold change /veh ORM1 (11744905_x_at) / RFU CCDC152 (11743942_at) / Fold change /veh CCDC152 (11743942_at) / RFU ECM1 (11717891_a_at) / Fold change /veh ECM1 (11717891_a_at) / RFU IL23R (11748794_a_at) / Fold change /veh IL23R (11748794_a_at) / RFU TNFAIP8L3 (11732012_x_at) / Fold change /veh TNFAIP8L3 (11732012_x_at) / RFU MBOAT4 (11741988_at) / Fold change /veh MBOAT4 (11741988_at) / RFU 11764193_at / Fold change /veh 11764193_at / RFU TMEM53 (11763286_at) / Fold change /veh TMEM53 (11763286_at) / RFU MAGEB2 (11727129_at) / Fold change /veh MAGEB2 (11727129_at) / RFU TMEM200A (11744735_a_at) / Fold change /veh TMEM200A (11744735_a_at) / RFU CCDC152 (11751479_a_at) / Fold change /veh CCDC152 (11751479_a_at) / RFU FAM211A (11726209_a_at) / Fold change /veh FAM211A (11726209_a_at) / RFU RGS16 (11746705_a_at) / Fold change /veh RGS16 (11746705_a_at) / RFU VCAN (11755009_s_at) / Fold change /veh VCAN (11755009_s_at) / RFU RHOB (11743442_s_at) / Fold change /veh RHOB (11743442_s_at) / RFU RGS16 (11720943_a_at) / Fold change /veh RGS16 (11720943_a_at) / RFU RGS16 (11720944_at) / Fold change /veh RGS16 (11720944_at) / RFU, VPS4B / Fold change vs veh, VPS4B / RFU, CREB1 / Fold change vs veh, CREB1 / RFU, DNAJC13 / Fold change vs veh, DNAJC13 / RFU, GNAQ / Fold change vs veh, GNAQ / RFU, CDK5R1 / Fold change vs veh, CDK5R1 / RFU, ZRANB3 / Fold change vs veh, ZRANB3 / RFU, CUL4A / Fold change vs veh, CUL4A / RFU, CCNY / Fold change vs veh, CCNY / RFU, UFL1 / Fold change vs veh, UFL1 / RFU, COG3 / Fold change vs veh, COG3 / RFU, DIAPH2 / Fold change vs veh, DIAPH2 / RFU, SKA2 / Fold change vs veh, SKA2 / RFU, AFF3 / Fold change vs veh, AFF3 / RFU, LMF1 / Fold change vs veh, LMF1 / RFU, IPO11 / Fold change vs veh, IPO11 / RFU, DFFB / Fold change vs veh, DFFB / RFU, FOXP1 / Fold change vs veh, FOXP1 / RFU, CARD8 / Fold change vs veh, CARD8 / RFU, STRN3 / Fold change vs veh, STRN3 / RFU, ADK / Fold change vs veh, ADK / RFU, RASSF2 / Fold change vs veh, RASSF2 / RFU, WIPF1 / Fold change vs veh, WIPF1 / RFU, LARP1B / Fold change vs veh, LARP1B / RFU, RASA1 / Fold change vs veh, RASA1 / RFU, RB1 / Fold change vs veh, RB1 / RFU, PPFIA1 / Fold change vs veh, PPFIA1 / RFU, MAT2A / Fold change vs veh, MAT2A / RFU, CCT5 / Fold change vs veh, CCT5 / RFU, WDR92 / Fold change vs veh, WDR92 / RFU, CUX1 / Fold change vs veh, CUX1 / RFU, TTC7A / Fold change vs veh, TTC7A / RFU, TMEM135 / Fold change vs veh, TMEM135 / RFU, DEPTOR / Fold change vs veh, DEPTOR / RFU, CPM / Fold change vs veh, CPM / RFU, DNAJB6 / Fold change vs veh, DNAJB6 / RFU, CACNA2D3 / Fold change vs veh, CACNA2D3 / RFU, DTX4 / Fold change vs veh, DTX4 / RFU, TFCP2 / Fold change vs veh, TFCP2 / RFU, GMCL1 /// GMCL1P1 / Fold change vs veh, GMCL1 /// GMCL1P1 / RFU, AEBP2 / Fold change vs veh, AEBP2 / RFU, SNHG1 /// SNORD22 /// SNORD25 /// SNORD26 /// SNORD27 /// SNORD28 /// SNORD29 /// SNORD31 / Fold change vs veh, SNHG1 /// SNORD22 /// SNORD25 /// SNORD26 /// SNORD27 /// SNORD28 /// SNORD29 /// SNORD31 / Fold change (Aza/veh), C12orf56 (ProbeSet 11735607_a_at) / Fold change (ACY-1035/veh), C12orf56 (ProbeSet 11735607_a_at) / Fold change (Aza/veh), FGFR1OP (ProbeSet 11751329_s_at) / Fold change (ACY-1035/veh), FGFR1OP (ProbeSet 11751329_s_at) / Fold change (Aza/veh), VPS36 (ProbeSet 11739960_a_at) / Fold change (ACY-1035/veh), VPS36 (ProbeSet 11739960_a_at) / RFU SYPL1 (11715823_x_at) / Fold change /veh SYPL1 (11715823_x_at) / RFU IGFBP7 (11715501_s_at) / Fold change /veh IGFBP7 (11715501_s_at) / RFU REEP3 (11722064_at) / Fold change /veh REEP3 (11722064_at) / RFU IGLL1 (11728026_x_at) / Fold change /veh IGLL1 (11728026_x_at): dose or concentration left out as unconfirmed
Settings: MV-4-11 cells, 48 hours

## Nc1ccc(-c2cccs2)cc1NC(=O)c1ccc2c(c1)cc(C1CC1)n2CCN1CCOCC1 [ACY-1035]
  RFU DDX43 (11728927_at): 10.07 RFU
